Consider 11 molecules from publication PMC8578332 (Scientific Reports, 2021).

Molecules are shown by their SMILES. Like-named read-outs stand apart in the source and are kept apart here. Where a SMILES comes first, the peptide text is derived from it. Bridges are numbered along the chain shown (N, C = ends). Where only a bound is given, the exact number is not on record here.

The test deals with human α7-containing nAChRs (Homo sapiens, UniProt P36544). As to the kind of experiment: cell-based. Type of test: cell-based.
human α7-containing nAChRs, sequence (P36544 23-502 limits assumed): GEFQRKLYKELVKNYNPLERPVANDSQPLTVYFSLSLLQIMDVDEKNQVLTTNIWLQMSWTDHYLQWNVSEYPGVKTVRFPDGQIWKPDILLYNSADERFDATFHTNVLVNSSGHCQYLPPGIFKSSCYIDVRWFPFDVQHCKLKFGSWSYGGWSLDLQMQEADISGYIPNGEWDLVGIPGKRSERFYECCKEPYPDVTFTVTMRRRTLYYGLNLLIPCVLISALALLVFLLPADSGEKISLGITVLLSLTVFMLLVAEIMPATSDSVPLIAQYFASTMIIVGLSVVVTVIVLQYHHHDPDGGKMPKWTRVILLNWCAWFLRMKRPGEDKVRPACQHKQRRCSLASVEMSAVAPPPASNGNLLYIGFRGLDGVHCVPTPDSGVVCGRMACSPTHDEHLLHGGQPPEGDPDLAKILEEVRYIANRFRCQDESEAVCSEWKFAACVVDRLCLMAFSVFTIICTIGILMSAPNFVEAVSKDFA

In turn, `CC[C@H](C)[C@@H]1NC(=O)[C@H](CC(N)=O)NC(=O)[C@@H]2CCCN2C(=O)[C@H](CC(N)=O)NC(=O)[C@H](CC(N)=O)NC(=O)[C@H](C(C)C)NC(=O)[C@H](CCCNC(=N)N)NC(=O)[C@@H]2CSSC[C@H](NC(=O)CNC(=O)[C@@H](N)CO)C(=O)N[C@@H](CSSC[C@@H](C(N)=O)NC1=O)C(=O)N[C@@H](CCCNC(=N)N)C(=O)N[C@@H](CC(N)=O)C(=O)N1CCC[C@H]1C(=O)N[C@@H](C)C(=O)N2` [gLsIA [S5R]] (H-SGCCRNPACRVNNPNIC-NH2; disulfide 3-9, 4-17) came in with a half-maximal inhibitory concentration (IC50) (SEM) of 0.24 ± 0.04 µM.
Same read-out and setting: the same measure for `C[C@@H]1NC(=O)[C@@H]2CSSC[C@H](NC(=O)[C@H](C)NC(=O)[C@@H]3CCCN3C(=O)[C@H](CC(N)=O)NC1=O)C(=O)N[C@@H](CCCNC(=N)N)C(=O)N[C@@H](Cc1c[nH]cn1)C(=O)N[C@@H](CC(N)=O)C(=O)N[C@@H](Cc1c[nH]cn1)C(=O)N1CCC[C@H]1C(=O)N[C@H](C(N)=O)CSSC[C@H](NC(=O)[C@@H](N)CO)C(=O)N2` [rAusIA [∆5 ∆16]] (H-SCCANPACRHNHPC-NH2; disulfide 2-14, 3-8): 27 ± 5.3 µM; for `CC(C)[C@H](NC(=O)[C@@H]1CSSC[C@H](NC(=O)[C@@H](N)CO)C(=O)N[C@H]2CSSC[C@H](NC(=O)[C@H](C)NC(=O)[C@@H]3CCCN3C(=O)[C@H](CC(N)=O)NC(=O)[C@H](C)NC2=O)C(=O)N[C@@H](CCCNC(=N)N)C(=O)N[C@@H](Cc2c[nH]cn2)C(=O)N[C@@H](CC(N)=O)C(=O)N[C@@H](Cc2c[nH]cn2)C(=O)N2CCC[C@H]2C(=O)N1)C(N)=O` [rAusIA [∆5]] (H-SCCANPACRHNHPCV-NH2; disulfide 2-14, 3-8): 51 ± 11.6 µM.
`CC(C)[C@H](NC(=O)[C@@H]1CSSC[C@H](NC(=O)[C@@H](N)CO)C(=O)N[C@H]2CSSC[C@H](NC(=O)[C@H](C)NC(=O)[C@@H]3CCCN3C(=O)[C@H](CC(N)=O)NC(=O)[C@H](CCCNC(=N)N)NC(=O)[C@H](C)NC2=O)C(=O)N[C@@H](C)C(=O)N[C@@H](Cc2c[nH]cn2)C(=O)N[C@@H](CC(N)=O)C(=O)N[C@@H](Cc2c[nH]cn2)C(=O)N2CCC[C@H]2C(=O)N1)C(N)=O` [rAusIA [R10A]] (H-SCCARNPACAHNHPCV-NH2; disulfide 2-15, 3-9) showed an IC50 of more than 100 µM.
Same read-out and setting: the same measure for `CC(C)[C@H](NC(=O)[C@@H]1CSSC[C@H](NC(=O)[C@@H](N)CO)C(=O)N[C@H]2CSSC[C@H](NC(=O)[C@H](C)NC(=O)[C@H](C)NC(=O)[C@H](CC(N)=O)NC(=O)[C@H](CCCNC(=N)N)NC(=O)[C@H](C)NC2=O)C(=O)N[C@@H](CCCNC(=N)N)C(=O)N[C@@H](Cc2c[nH]cn2)C(=O)N[C@@H](CC(N)=O)C(=O)N[C@@H](Cc2c[nH]cn2)C(=O)N2CCC[C@H]2C(=O)N1)C(N)=O` [rAusIA [P7A]] (H-SCCARNAACRHNHPCV-NH2; disulfide 2-15, 3-9): more than 100 µM.
`CC(C)[C@H](NC(=O)[C@@H]1CSSC[C@H](NC(=O)[C@@H](N)CO)C(=O)N[C@H]2CSSC[C@H](NC(=O)[C@H](C)NC(=O)[C@@H]3CCCN3C(=O)[C@H](CC(N)=O)NC(=O)[C@H](CO)NC(=O)[C@H](C)NC2=O)C(=O)N[C@@H](CCCNC(=N)N)C(=O)N[C@@H](Cc2c[nH]cn2)C(=O)N[C@@H](CC(N)=O)C(=O)N[C@@H](Cc2c[nH]cn2)C(=O)N2CCC[C@H]2C(=O)N1)C(N)=O` [rAusIA [R5S]] (H-SCCASNPACRHNHPCV-NH2; disulfide 2-15, 3-9) displayed an IC50 (SEM) of 70 ± 10 µM.
`CC(C)[C@H](NC(=O)[C@@H]1CSSC[C@@H]2NC(=O)[C@@H](NC(=O)[C@@H](N)CO)CSSC[C@H](NC(=O)[C@H](C)NC(=O)[C@H](C)NC(=O)[C@H](CC(N)=O)NC(=O)[C@H](CCCNC(=N)N)NC(=O)[C@H](C)NC2=O)C(=O)N[C@@H](CCCNC(=N)N)C(=O)N[C@@H](Cc2c[nH]cn2)C(=O)N[C@@H](CC(N)=O)C(=O)N[C@@H](Cc2c[nH]cn2)C(=O)N2CCC[C@H]2C(=O)N1)C(N)=O` [gAusIA [P7A]] (H-SCCARNAACRHNHPCV-NH2; disulfide 2-9, 3-15) had an IC50 of more than 100 µM.
On to `CC(C)[C@H](NC(=O)[C@@H]1CSSC[C@@H]2NC(=O)[C@@H](NC(=O)[C@@H](N)CO)CSSC[C@H](NC(=O)[C@H](C)NC(=O)[C@@H]3CCCN3C(=O)[C@H](CC(N)=O)NC(=O)[C@H](CO)NC2=O)C(=O)N[C@@H](CCCNC(=N)N)C(=O)N[C@@H](Cc2c[nH]cn2)C(=O)N[C@@H](CC(N)=O)C(=O)N[C@@H](Cc2c[nH]cn2)C(=O)N2CCC[C@H]2C(=O)N1)C(N)=O` [gAusIA [A4S ∆5]] (H-SCCSNPACRHNHPCV-NH2; disulfide 2-8, 3-14), for which the midpoint of inhibition (SEM), the IC50, lay at 0.428 ± 0.112 µM.
On the same count and under the same terms, to `C[C@@H]1NC(=O)[C@@H]2CSSC[C@@H](C(N)=O)NC(=O)[C@@H]3CCCN3C(=O)[C@H](Cc3c[nH]cn3)NC(=O)[C@H](CC(N)=O)NC(=O)[C@H](Cc3c[nH]cn3)NC(=O)[C@H](CCCNC(=N)N)NC(=O)[C@H](CSSC[C@H](NC(=O)[C@@H](N)CO)C(=O)N2)NC(=O)[C@H](C)NC(=O)[C@@H]2CCCN2C(=O)[C@H](CC(N)=O)NC(=O)[C@H](CCCNC(=N)N)NC1=O` [gAusIA [∆16]] (H-SCCARNPACRHNHPC-NH2; disulfide 2-9, 3-15) belongs 12 ± 2.3 µM.
Consider `CC(C)[C@H](NC(=O)[C@@H]1CSSC[C@@H]2NC(=O)[C@@H](NC(=O)[C@@H](N)CO)CSSC[C@H](NC(=O)[C@H](C)NC(=O)[C@@H]3CCCN3C(=O)[C@H](CC(N)=O)NC(=O)[C@H](CCCNC(=N)N)NC(=O)[C@H](C)NC2=O)C(=O)N[C@@H](C)C(=O)N[C@@H](Cc2c[nH]cn2)C(=O)N[C@@H](CC(N)=O)C(=O)N[C@@H](Cc2c[nH]cn2)C(=O)N2CCC[C@H]2C(=O)N1)C(N)=O` [gAusIA [R10A]] (H-SCCARNPACAHNHPCV-NH2; disulfide 2-9, 3-15), for which the half-maximal inhibitory concentration (IC50) is more than 100 µM.
Consider `CC[C@H](C)[C@@H]1NC(=O)[C@H](CC(N)=O)NC(=O)[C@@H]2CCCN2C(=O)[C@H](CC(N)=O)NC(=O)[C@H](CC(N)=O)NC(=O)[C@H](C(C)C)NC(=O)[C@H](CCCNC(=N)N)NC(=O)[C@@H]2CSSC[C@H](NC(=O)[C@@H](NC(=O)CNC(=O)[C@@H](N)CO)CSSC[C@@H](C(N)=O)NC1=O)C(=O)N[C@@H](CCCNC(=N)N)C(=O)N[C@@H](CC(N)=O)C(=O)N1CCC[C@H]1C(=O)N[C@@H](C)C(=O)N2` [rLsIA [S5R]] (H-SGCCRNPACRVNNPNIC-NH2; disulfide 3-17, 4-9), for which the IC50 (SEM) worked out at 27 ± 5.3 µM.
